Test results from US20260042747A1, “KIT INHIBITORS, COMPOUNDS, PHARMACEUTICAL COMPOSITIONS, AND METHODS OF USE THEREOF” (Alivexis, Inc., priority 2022, published 2026).
Structures can show the parent of a compound that is named as a salt. Where two headings read alike, the source gives them in different places.

Legend:
[1] = target: recombinant human KIT tyrosine kinase protein (Homo sapiens (Human), UniProt P10721); experiment: KIT tyrosine kinase assay (ADP-Glo); assay type: biochemical
Method: An in vitro assay utilizing the recombinant human KIT tyrosine kinase protein was developed to measure compound inhibition of KIT. KIT tyrosine kinase activity was measured by the ADP-Glo Kinase Assay system with poly […]) peptide substrate. Kinase Assay was performed in white 384-well plates and the luminescence was measured by Victor X5 Multilabel Counter (Perkin Elmer). Recombinant intracellular domain of human KIT protein was purchased from Carna Biosciences (Kobe, Japan). Poly […]) peptide was purchased from Sigma-Aldrich (St. Louis, Missouri, USA). ADP-Glo Kinase Assay reagent was purchased from Promega (Madison, Wisconsin, USA). Each test compound was dissolved in 100% DMSO to prepare 10 mM stock solutions. […] After the preincubation, 3 μL of substrate/ATP mixture was added and incubated for 1 hour at room temperature. The tyrosine phosphorylation by KIT kinase was quantified by ADP-Glo kinase assay kit following the manufacturer's protocol. Briefly, the phosphorylation reaction was terminated by adding 10 μL ADP-Glo reagent and incubated for 60 minutes at room temperature. 20 μL of Kinase Detection Reagent was added to each well and luminescence was measured by plate reader. […] Half maximal inhibitory concentration (IC50) was calculated by a Four […] Logistic Regression model using GraphPad Prism (GraphPad Software). The value without recombinant KIT protein and without test compound was used as a negative control (assay background).

M-07e cells = experiment: SCF-dependent M-07e cell proliferation assay; assay type: cell-based, human; conditions: read-out: M-07e IC50
Method: SCF-dependent cell proliferation assay was developed to measure the inhibitory potency of the compounds in M-07e cells, which express wild-type human KIT protein. The assay was performed in 96-well plates and the IC50 of each KIT inhibitor was determined by CellTiter Glo Assay reagent and Victor X5 Multilabel Counter (Perkin Elmer).
M-07e cells were purchased from AcceGen Biotechnology. Cells were maintained with M-07e Growth medium: RPMI-1640 containing 20% FBS, 100 U/mL penicillin and 100 microgram/mL streptomycin, 10 ng/mL rhGM-CSF, 10 ng/mL rhSCF. M-07e cells were seeded at a density of 5000 cells/90 μL/well in 96-well plates. Test compounds were dissolved in 100% DMSO to make 20 mM stock solution and serially diluted 1:3 with 100% DMSO to make an 11-point dilution series with concen-trations from […] to 0.024 μM. The serially diluted compounds were then each diluted 1:50 with culture medium to obtain assay compound solutions containing 2% DMSO. Ten μL of assay compound solutions were added to the 90 μL of culture cell suspension in the 96-well plate, with a final DMSO concentration of 0.2%. The plates were then incubated in a 5% CO2 incubator at 37° C. for 3 days. To obtain Day Zero Controls for background calculation, cells were seeded at 5000 cells/100 μL in a new 96-well plate and processed on the same day. Both Day Zero controls and 3 day culture plates were then treated as follows. 100 μL of CellTiter Glo Assay reagent was added to each well and the plate was incubated at room temperature for 15 min on a shaker at 200-300 RPM. Then 100 μL of cell lysate samples were transferred to white wall 96-well plates and luminescence was measured by a plate reader. The luminescence of Day Zero Control was subtracted from the luminescence intensity of 3 day culture readings. The assay control for this experiment was cells treated with 0.2% DMSO in culture medium and wells with 100 μL of culture medium (0.2% DMSO without cells) were used as the blank for data analysis.
The IC50 value of each compound was determined by using % inhibition by nor-malizing inhibition in DMSO treated control wells to 0% using the following formula method: […]
Plot percent inhibition in proliferation of triplicates against the respective concen-trations of compound and fit the dose response curve using the sigmoidal dose response equation to generate the IC50 in GraphPad Prism 8 software.

[2] = SCF-dependent M-07e cell proliferation, 3 days, CellTiter Glo
[3] = Homo sapiens, M-07e, 72 h, SCF-dependent M-07e cell proliferation, 3 days, CellTiter Glo

Chain of recombinant human KIT tyrosine kinase protein (P10721 546-976): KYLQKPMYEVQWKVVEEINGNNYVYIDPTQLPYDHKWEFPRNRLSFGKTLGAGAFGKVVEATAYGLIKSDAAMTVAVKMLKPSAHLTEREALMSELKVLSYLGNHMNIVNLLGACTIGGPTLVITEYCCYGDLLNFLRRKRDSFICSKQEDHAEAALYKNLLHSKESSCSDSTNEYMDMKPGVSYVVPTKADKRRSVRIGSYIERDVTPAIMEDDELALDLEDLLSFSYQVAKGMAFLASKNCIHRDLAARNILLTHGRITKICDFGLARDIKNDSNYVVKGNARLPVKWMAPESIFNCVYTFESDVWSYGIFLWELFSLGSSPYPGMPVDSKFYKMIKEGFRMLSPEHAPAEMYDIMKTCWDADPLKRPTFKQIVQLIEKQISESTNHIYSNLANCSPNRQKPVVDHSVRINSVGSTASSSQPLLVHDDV

Row | Compound | IC50 ([1]; Table 98) [nM] | IC50 (M-07e cells; Homo sapiens, M-07e, 72 h) [nM] | IC50 ([1]; Table 99) [nM] | IC50 (M-07e cells; [2]) [nM] | IC50 (M-07e cells; [3]) [nM]
1 | CN(CC1CCCOC1)c1ccc(CNC(=O)c2ccc3c(c2)[nH]c(=O)n3C)cn1 (stereo not drawn) [Example 69] | 96 | 520 |  |  | 
2 | CN(c1cnc(CNC(=O)c2cc3[nH]c(=O)[nH]c3cc2F)cn1)C1CCC(F)(F)C1 (stereo not drawn) [Example 138] |  | 4570 | 35 |  | 
3 | CN(c1ccc(CNC(=O)c2ccc3c(c2)[nH]c(=O)n3C)cn1)C12CC(C(F)(F)F)(C1)C2 [Example 80] | 31 | 240 |  |  | 
4 | CC(c1ccccc1)N(C)c1ccc(CNC(=O)c2ccc3c(c2)[nH]c(=O)n3C)cn1 (single isomer, unassigned) [82 Peak 1] | 180 |  |  | 6300 | 
5 | CC(c1ccccc1)N(C)c1ccc(CNC(=O)c2ccc3c(c2)[nH]c(=O)n3C)cn1 (stereo not drawn) [Example 82] | 75 |  |  |  | 730
6 | CN(c1ccc(CNC(=O)c2ccc3c(c2)[nH]c(=O)n3C)cn1)C1Cc2ccccc2C1 [Example 120] |  | 206 | 45 |  | 
7 | CN(c1ccc(CNC(=O)c2ccc3c(c2)[nH]c(=O)n3C)cn1)C1CC2(COC2)C1 [Example 121] |  | 1350 | 59 |  | 
8 | CN(c1ccc(CNC(=O)c2ccc3c(c2)[nH]c(=O)n3C)cn1)[C@H]1CCC(F)(F)C1 [Example 105, (S)—N-((6-((3,3-Difluorocyclopentyl)(methyl)amino)pyridin-3-yl)methyl)-1-methyl-2-o xo-2,3-dihydro-1H-benzimidazole-5-carboxamide] |  |  | 21 |  | 13
9 | Cn1c(=O)[nH]c2cc(C(=O)NCc3ccc(OC4CCOC(C)(C)C4)nc3)ccc21 (stereo not drawn) [Example 48] | 550 | 8900 |  |  | 
10 | CN(Cc1ccccc1)c1ccc(CNC(=O)c2ccc3c(c2)[nH]c(=O)n3C)cn1 [Example 66] | 33 | 79 |  |  | 
11 | CN(CCC(F)(F)F)c1ccc(CNC(=O)c2ccc3c(c2)[nH]c(=O)n3C)cn1 [Example 67] | 25 | 220 |  |  | 
12 | COc1cc(C(=O)NCc2ccc(N(C)[C@H]3C[C@@H](C(F)(F)F)C3)nc2)cc2[nH]c(=O)[nH]c12 [Example 145] |  | 515 | 15 |  | 
13 | CN(c1ccc(CNC(=O)c2cc3[nH]c(=O)n(C)c3cc2F)cn1)C1CC(F)(F)C1 [Example 139] |  |  | 75 |  | 636
14 | Cn1c(=O)[nH]c2cc(C(=O)NCc3cnc4c(c3)CCN4c3c(F)cccc3F)ccc21 [Example 102] |  | 270 | 55 |  | 
15 | CN(c1ccc(CNC(=O)c2cc3[nH]c(=O)[nH]c3cc2F)cn1)C1CCC(F)(F)CC1 [Example 135] |  |  | 30 |  | 589
16 | CN(c1ccc(CNC(=O)c2ccc3c([nH]c(=O)n3C)c2F)cn1)C1CCC(F)(F)C1 (stereo not drawn) [Example 147] |  |  | 23 |  | 440
17 | CC(NC(=O)c1ccc2c(c1)[nH]c(=O)n2C)c1ccc(N(C)C(C)C)nc1 (single isomer, unassigned) [130 Peak 1] |  |  | 79 |  | 621
18 | CCC(C)N(C)c1ccc(CNC(=O)c2ccc3c(c2)[nH]c(=O)n3C)cn1 (stereo not drawn) [Example 84] | 16 | 180 |  |  | 
19 | CC(c1ccccc1)N(C)c1ccc(CNC(=O)c2ccc3c(c2)[nH]c(=O)n3C)cn1 (single isomer, unassigned) [82 Peak 2] | 29 |  |  | 620 | 
20 | Cn1c(=O)[nH]c2cc(C(=O)NCc3cnc4c(c3)CCN4C3CCC(F)(F)CC3)ccc21 [Compound 18, N-((1-(4,4-difluorocyclohexyl)-2,3-dihydro-1H-pyrrolo[2,3-b]pyridin-5-yl)methyl)-1-met hyl-2-oxo-2,3-dihydro-1H-benzimidazole-5-carboxamide] | 57 |  |  |  | 210

Row | Compound | IC50 ([1]; Table 98) [nM] | IC50 (M-07e cells; Homo sapiens, M-07e, 72 h) [nM] | IC50 ([1]; Table 99) [nM] | IC50 (M-07e cells; [2]) [nM] | IC50 (M-07e cells; [3]) [nM]
21 | CN(c1ccc(F)cc1)c1ccc(CNC(=O)c2ccc3c(c2)[nH]c(=O)n3C)cn1 [Compound 9, N-((6-((4-Fluorophenyl)(methyl)amino)pyridin-3-yl)methyl)-1-methyl-2-oxo-2,3-dihydro-1H-benzimidazole-5-carboxamide trifluoroacetate] | 34 |  |  |  | 610
22 | CN(c1ccc(CNC(=O)c2ccc3c(c2)[nH]c(=O)n3C)cn1)c1cccc(F)c1F [Example 61] | 56 | 760 |  |  | 
23 | CC(C)N1CCc2cc(CNC(=O)c3ccc4c(c3)[nH]c(=O)n4C)cnc21 [Compound 17, N-((1-Isopropyl-2,3-dihydro-1H-pyrrolo[2,3-b]pyridin-5-yl)methyl)-1-methyl-2-oxo-2,3-dihydro-1H-benzimidazole-5-carboxamide] | 22 |  |  |  | 390
24 | CN(c1ccc(CNC(=O)c2ccc3c(c2)[nH]c(=O)n3C)cn1)C12CC(C)(C1)C2 [Example 78] | 26 | 150 |  |  | 
25 | CN(c1ccc(CNC(=O)c2cc3[nH]c(=O)n(C)c3cc2F)cn1)C1CCC(F)(F)CC1 [Example 115, N-((6-((4,4-Difluorocyclohexyl)(methyl)amino)pyridin-3-yl)methyl)-6-fluoro-1-methyl-2-oxo-2,3-dihydro-1H-benzimidazole-5-carboxamide] |  |  | 21 |  | 70
26 | CN(c1ccc(CNC(=O)c2ccc3c(c2)[nH]c(=O)n3C)cn1)C1CC(C)(C)C1 [Example 77] | 29 | 110 |  |  | 
27 | CN(Cc1ccccc1F)c1ccc(CNC(=O)c2ccc3c(c2)[nH]c(=O)n3C)cn1 [Example 74] | 25 | 110 |  |  | 
28 | Cn1c(=O)[nH]c2cc(C(=O)NCc3ccc(Nc4ccc(F)cc4)nc3)ccc21 [Example 57] | 227 |  |  |  | 7300
29 | CN(c1ncc(CNC(=O)c2ccc3c(c2)[nH]c(=O)n3C)s1)C1CCC(F)(F)CC1 [Example 90] | 48 | 1800 |  |  | 
30 | CN(c1ccc(CNC(=O)c2ccc3c(c2)[nH]c(=O)n3C)cn1)C1CC2(C1)CC2(F)F (stereo not drawn) [Example 125] |  | 151 | 31 |  | 
31 | C[C@@H]1CCCN1c1ccc(CNC(=O)c2ccc3c(c2)[nH]c(=O)n3C)cn1 [Example 99] | 50 | 540 |  |  | 
32 | CN(c1ccc(CNC(=O)c2cc(F)c3[nH]c(=O)[nH]c3c2)cn1)C1CC(F)(F)C1 [Example 144] |  |  | 57 |  | 3560
33 | CN(CC1CCCCO1)c1ccc(CNC(=O)c2ccc3c(c2)[nH]c(=O)n3C)cn1 (stereo not drawn) [Example 71] | 60 | 310 |  |  | 
34 | CC(C)N(C)c1ccc(CNC(=O)c2ccc3c(c2)[nH]c(=O)n3C)cn1 [Compound 11b, N-((6-(Isopropyl(methyl)amino)pyridin-3-yl)methyl)-1-methyl-2-oxo-2,3-dihydro-1H-be nzimidazole-5-carboxamide hydrochloride] | 96 |  |  |  | 220
35 | CC(C)N(C)c1ccc(CNC(=O)c2cc3[nH]c(=O)[nH]c3cc2F)cn1 [Example 136] |  |  | 27 |  | 209
36 | C[C@H]1CCCN1c1ccc(CNC(=O)c2ccc3c(c2)[nH]c(=O)n3C)cn1 [Compound 14, (S)-1-Methyl-N-((6-(2-methylpyrrolidin-1-yl)pyridin-3-yl)methyl)-2-oxo-2,3-dihydro-1H-benzimidazole-5-carboxamide] | 63 |  |  |  | 560
37 | CN(c1ccc(CNC(=O)c2cc(F)c3[nH]c(=O)[nH]c3c2)cn1)[C@H]1C[C@@H](C(F)(F)F)C1 [Example 142] |  | 278 | 18 |  | 
38 | CN(c1ccc2c(c1)COC2)c1ccc(CNC(=O)c2ccc3c(c2)[nH]c(=O)n3C)cn1 [Example 119] |  | 423 | 40 |  | 
39 | CN(c1ccc(CNC(=O)c2ccc3c(c2)[nH]c(=O)n3C)cn1)c1ccccc1F [Example 59] | 14 | 190 |  |  | 
